Laboratory results from patent US20250243219A1, “MACROCYCLIC COMPOUNDS AND USES THEREOF” (Cypralis Limited, priority 2022, published 2025).

Columns and labels:
[1] = biological target: cyclophilin A (Homo sapiens (Human), UniProt P62937); test: Functional peptidyl prolyl isomerase (PPIase) spectrophotometric assay, cyclophilin A; format: biochemical; conditions: first value of CypA/D cell
How it was run: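 Cuvette-based UV/Vis assay of PPIase-catalysed cis-to-trans isomerisation of a peptide substrate. First-order rate constants fitted to absorbance, background rate subtracted. Ki derived from rate constant versus inhibitor concentration, typically 6-point curves in duplicate.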

[2] = test system: permeabilised HepG2 cells; test: Calcium retention capacity (CRC) assay in permeabilised HepG2 cells (MPTP opening); format: cell-based, human; design: CRC [10 μM]: unit not given here; conditions: compound at 10 μM
How it was run: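 Digitonin-permeabilised HepG2 cells received trains of calcium pulses (typically 5 μM) monitored with Calcium Green-5N until buffering failed, marking permeability transition. Runs with and without compound; calcium retained at 10 μM compound expressed as ratio versus cyclosporin A positive control.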

[3] = Pharmacokinetics in mice, oral dose; format: in vivo, mice (strain FVB/N); conditions: oral 10 mg/kg
Procedure: (§1) Test compounds were administered to rodents (mice or rats) either orally, subcutaneously or intravenously. To determine blood or plasma concentrations blood samples were taken at different time points and analysed for the concentration of test compound by LC/MS. Brain concentrations were measured by sacrificing animals and LC/MS analysis of brain homogenate. FIG. 2 illustrates graphs for the concentration (ng/ml) Compound (2) in blood, blood plasma and in the brain at 30 minutes to 7 hours after oral treatment.

[4] = Pharmacokinetics in mice, subcutaneous administration; format: in vivo, mice (strain FVB/N); conditions: subcutaneous 10 mg/kg; for Tmax / Cmax / half-life: sc
Procedure: as §1, with “FIG. 3” for “FIG. 2”, “after the same dosage administered sub-cutaneously.” for “after oral treatment.”

[5] = test system: kainic acid treated NMRI mice; test: Kainic acid model of epilepsy; format: in vivo, Male NMRI mice; conditions: 150 mg/kg for 3 consecutive days, kainic acid 45 mg/kg s.c., n=21
Procedure: Male NMRI mice (n=21) were given 150 mg/kg of Compound (2) (60% PEG400/water solution) for 3 consecutive days. 2 hours after the last dose the animals were given subcutaneously 45 mg/kg of kainic acid. Behaviour was monitored for 3 hours. On day 7 after receiving kainic acid the animals were sacrificed and brain analysed by immunohistochemistry for markers of neurodegeneration.

[6] = FVB/N, mouse, brain, read-out: Tmax Brain
[7] = FVB/N, mouse, plasma, read-out: Cmax Plasma
[8] = FVB/N, mouse, plasma, read-out: T1/2 Plasma (converted)
[9] = FVB/N, mouse, plasma, read-out: Tmax Plasma
[10] = FVB/N, mouse, whole blood, read-out: Cmax Whole blood
[11] = FVB/N, mouse, whole blood, read-out: T1/2 Whole blood (converted)
[12] = FVB/N, mouse, whole blood, read-out: Tmax Whole blood

Sequence of cyclophilin A (P62937 whole entry, species assumed): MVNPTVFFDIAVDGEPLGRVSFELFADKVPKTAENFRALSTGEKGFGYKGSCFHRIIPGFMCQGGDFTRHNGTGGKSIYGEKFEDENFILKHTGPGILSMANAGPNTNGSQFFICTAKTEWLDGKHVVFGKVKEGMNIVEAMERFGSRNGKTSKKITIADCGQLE

**Q.** What does the source list for `CC(C)[C@@H]1OC(=O)C(C)(C)/C=C/c2ccc3ccc(nc3c2)N(C)NC(=O)[C@@H]2CCCN(N2)C(=O)[C@H](C)NC1=O` [Compound (2)]?
**A.** Ki [1]: 5 nM; CRC [10 μM] ([2]; digitonin permeabilised HepG2 cells): 26; CRC [10 μM] (ratio vs CsA) ([2]; normalised to cyclosporin A, value in brackets): 0.9875; Kp ([3]; FVB/N, mouse, brain and blood): 0.72; Tmax [3, 6]: 7 h; Cmax [3, 7]: 582 ng/mL; half-life [3, 8]: 3 h; Tmax [3, 9]: 0.5 h; Cmax [3, 10]: 1490 ng/mL; half-life [3, 11]: 5.45 h; Tmax [3, 12]: 0.5 h; AUC0-t Plasma [3]: 3180 ng/mL/h; AUC0-t Whole blood [3]: 12500 ng/mL/h; Blood/plasma [3]: 2.87 Ratio; Cmax Brain [3]: 297 ng/mL; Kp ([4]; FVB/N, mouse, brain and blood): 0.9; Tmax [4, 6]: 2 h; Cmax [4, 7]: 1640 ng/mL; half-life [4, 8]: 1.77 h; Tmax [4, 9]: 0.5 h; Cmax [4, 10]: 2640 ng/mL; half-life [4, 11]: 3.17 h; Tmax [4, 12]: 0.5 h; AUC0-t Brain [4]: 3370 ng/mL/h; AUC0-t Plasma [4]: 3730 ng/mL/h; AUC0-t Whole blood [4]: 8150 ng/mL/h; Blood/plasma [4]: 2.2 Ratio; Cmax Brain [4]: 563 ng/mL; Number of animals with visible signs of neurodegeneration ([5]; control group 5 animals): 2 animals; Percent of animals with visible signs of neurodegeneration ([5]; control group 24%): 9%
